In brackets after ≈: the same amount, converted by molar mass. Read-outs that look alike come from different tables or passages of the source.
How the values were obtained:
[1] = test system: first stage larvae of the cattle tick, Boophilus microplus; assay: Cattle tick larvae in treated filter paper packets (Example 65); type: in vivo; conditions: 30 parts per million, 25° C, 24 hours
Protocol: Filter papers, diameter 9 cm., were treated with 1 ml. of acetone solutions containing 30 parts per million of 2,2-dimethyl-1,3-benzodioxol-4-yl N-methylcarbamate or 7-chloro-2,2-dimethyl-1,3-benzodioxol-4-yl N-methylcarbamate. When they had dried, they were folded into quadrant shaped packets, infested with 20 first stage larvae of the cattle tick, Boophilus microplus, closed with a metal clip and kept at 25° C for 24 hours.

[2] = test system: adult female houseflies (Musca domestica); assay: LC50 against adult female houseflies on filter papers (Example 70); type: in vivo; conditions: for LC50 value: adult female houseflies, 24 hours, 0-6 scale (mg/ft^2)
Protocol: (§1) If complete kill was obtained at the highest dosage rate, the test was repeated using a logarithmically reducing dose regime until less than 50% mortality was recorded. The LC50 was then calculated from the line of best fit from the data plotted on log/provit analysis paper.
(§2) Similarly LC50 values were obtained against various pests as described in Examples 70-73 where, however, the LC50 values are abbreviated on a 0-6 scale where
LC50 values were obtained for each of Compounds 1, 2, 3, 4, 5 and 6 against adult female houseflies (Musca domestica), of the order Diptera. The tests were carried out by adding acetone solutions of the compounds to 9 cm diameter filter papers in the base of 9 cm diameter crystallising dishes, placing the houseflies in the dishes after the acetone had evaporated, closing the dishes with Petri dish lids and counting the mortality after 24 hours. The highest dosage rate employed was 1000 mg/ft^2 (10.65 g/m^2).

[3] = test system: 2nd stage nymph of the German cockroach (Blattella germanica); assay: LC50 against German cockroach nymphs in treated glass tubes (Example 69); type: in vivo; conditions: for LC50 value: 2nd stage nymph German cockroach, 48 hours, 0-6 scale
Protocol: Compounds 2 and 4 and also 2,2-dimethyl-1,3- benzodioxol-4-yl N-methylcarbamate(compound 5) and 2,2-dimethyl-1,3-benzodioxol-4-yl N-acetyl-N-methylcarbamate (compound 6) were tested for activity against the 2nd stage nymph of the German cockroach (Blattella germanica), of the order Orthoptera, by treating the walls of glass tubes (9.0 cm high × 4.5 cm diameter) with acetone solutions of the compounds and after the acetone had evaporated caging the insects in the tubes for 48 hours. The highest dosage rate employed was 50 mg/ft^2 (532 mg/m^2).
as §1
The LC50 values are abbreviated on a 0-6 scale where

[4] = test system: larvae of the sheep maggot fly (Lucilia sericata); assay: LC50 against sheep maggot fly larvae on dental rolls (Example 71); type: in vivo; conditions: for LC50: Lucilia sericata, read-out: LC50 value
Protocol: as §1, §2
Similarly, LC50 values were obtained for each of Compounds 1, 2, 3, 4, 5 and 6 against larvae of the sheep maggot fly (Lucilia sericata), of the order Diptera. The tests were carried out by placing newly hatched larvae on dental rolls contained in glass vials and soaked with 1 ml of blood serum containing the compound. The mortality was assessed after 24 hours. The highest dosage rate employed was 1000 ppm.

[5] = test system: adult red spider mites (Tetranychus telarius); assay: LC50 against adult red spider mites on sprayed French beans (Example 73); type: in vivo; conditions: read-out: LC50 value
Protocol: as §1, §2
Similarly, LC50 values were obtained for each of Compounds 1, 2, 4, 5 and 6 against adult red spider mites (Tetranychus telarius), of the order Acarina. The tests were carried out by spraying infected French beans with a 50% acetone water solution of the compound, containing 500 ppm of Lissapol NX as a wetting agent, and recording the mortality after 48 hours. The highest dosage rate employed was 1000 ppm which is equivalent to 10 lb/acre (11.20 kg/ha).

[6] = test system: adult apterous vetch aphids (Megoura viciae); assay: Vetch aphids on sprayed field beans (Examples 49 and 50); type: in vivo; conditions: 100 parts per million, 50 gallons per acre, 24 hours
Excerpt: Aqueous suspensions containing 100 parts per million of 2,2-dimethyl-1,3-benzodioxol-4-yl N-methylcarbamate and 2,2-dimethyl-1,3-benzodioxol-4-yl N-acetyl-N-methylcarbamate were sprayed at a rate equivalent to 50 gallons per acre (585 liters per hectare) on young field beans (Vicia faba) infested with adult apterous vetch aphids (Megoura viciae). After treatment the plants were enclosed in glass cages with gauze tops for ventilation.

[7] = Acute oral LD50 to mice (Example 76); set-up: species or system mouse (Carshalton CFW strain); conditions: in vivo, mouse, by stomach tube in 0.4% tragacanth, up to 5 days
Protocol: (§3) Mammalian toxicity was assessed by measuring the acute oral LD50 to rats and mice. Componds were dissolved or suspended in a 0.4% tragacanth solution and administered by stomach tube to the test animal. The mice used were 10 to 15 g weanlings of the Carshalton CFW strain whilst the rats were 30 to 40 g weanlings of Wystar strain. Three replicates per dosage rate were employed and the mortality was recorded daily for up to 5 days. The LD50 values were calculated as for those for insecticidal and acaricidal activity above.

[8] = test system: adult female houseflies (Musca domestica); assay: Housefly mortality on treated filter papers (Examples 32-40); type: in vivo; conditions: 100 milligrams per square foot, after 24 hours
Excerpt: 9 centimeter diameter filter papers treated with aqueous acetone solutions of each of the compounds
at rates equivalent to 100 milligrams per square foot (100 mgm./0.09 m^2.) of active ingredient were placed in 9 centimeter diameter Petri dishes. Batches of adult female houseflies (Musca domestica) lightly anaesthetised with carbon dioxide were then introduced into the dishes and a glass lid placed over each.

[9] = Acute oral LD50 to rats (Example 76); type: in vivo, rat (Wystar strain); conditions: in vivo, po; rat male, by stomach tube in 0.4% tragacanth, up to 5 days
Protocol: as §3

[10] = test system: first instar larvae of the sheep blowfly (Lucilia sericata); assay: Sheep blowfly larvae on treated cotton wool pads (Examples 53-60); type: in vivo; conditions: 1/2 ml. of acetone solution on cotton wool pads, after 24 hours
Protocol: Cylindrical pads of cotton wool, approximate diameter 1 cm., length 2 cms. were treated with 1/2 ml. of acetone solutions of the following carbamates:
After leaving for 12 hours to dry, the pads were treated with 1 ml. of sheep blood serum and infested with 20 first instar larvae of the sheep blowfly (Lucilia sericata). After 24 hours, the blowflies were examined and found to be all dead; insects similarly infested on untreated pads were unaffected.

[11] = test system: domestic and public health insect pests; assay: Indoor treatment against domestic and public health insect pests; type: in vivo; conditions: 200 mg per square meter, aqueous spray containing 0.25% active ingredient; ants, bed bugs, fleas, houseflies, silverfish, mosquitoes, wasps, carpet beetles, crickets, cockroaches
Excerpt: In a preferred application, the compounds and especially 2,2-dimethyl-1,3-benzodioxol-4-yl N-methylcarbamate are used to combat domestic and public health insect pests. For this use, the compounds are generally applied indoors, e.g. in buildings or on ships, for example in food preparation or storage areas e.g. in houses, flats, warehouses and ships. The compounds are suitably applied at a rate of 50-2000, preferably about 50-1,000, for example 200, mg per square meter.

[12] = test system: second instar larvae of the cabbage white butterfly (Pieris brassicae); assay: Cabbage white butterfly larvae on treated cabbage leaf discs (Examples 41-48); type: in vivo; conditions: 10, 5, 1, 0.5 and 0.25 pounds per acre, three replications, after 48 hours
Excerpt: 7 centimeter diameter circular discs of cabbage leaves were painted with 1 milliliter aqueous acetone solutions of each of the following compounds:
in each case at concentrations equivalent to leaf applications of 10, 5, 1, 0.5 and 0.25 pounds per acre (11.2, 5.6, 1.12, 0.56 and 0.28 kg./hectare) of active ingredient. When the deposit on the leaf discs had dried, each leaf disc was placed in a 9 centimeter diameter Petri dish, infested with ten second instar larvae of the cabbage white butterfly (Pieris brassicae) and covered with a glass lid. Three replications were made with each compound at each concentration level.

rats and mice = assay: Mammalian toxicity (overall comparison); type: in vivo; conditions: compared with compound 5
Protocol: as §3

[13] = test system: larvae of the cattle tick (Boophilus microplus); assay: LC50 against cattle tick larvae (Example 72); type: in vivo; conditions: Rhipicephalus microplus, 24 hours, 0-6 scale (ppm)
Protocol: as §1, §2
Similarly, LC50 values were obtained for each of Compounds 2 and 4 against larvae of the cattle tick (Boophilus microplus), of the order Acarina. The tests were carried out evaporating 1 ml of an acetone solution of the compound on 9 cm diameter filter papers, folding the papers twice in half after drying to give quadrant shaped packets and sealing the tick larvae therein for 24 hours by means of a paper clip. The highest dosage rate employed was 1000 ppm.

Solubility = type: physicochemical; conditions: compared with compound 5
[14] = test system: sheep maggot fly (Lucila sericata); assay: Persistency on sheep against sheep maggot fly; type: in vivo; conditions: compared with compound 5
[15] = test system: German cockroaches (Blattella germanica); assay: Persistency against German cockroaches on treated glass plates (Example 74); type: in vivo; conditions: 100 mg/ft^2 (1.065 g/m^2), 2nd stage nymphs, 7 day intervals until less than 50% mortality
Protocol: Persistency was measured against German cockroaches (Blattella germanica), or the order Orthoptera, by treating glass plates with acetone solutions of the compunds listed below to produce a deposit equivalent to 100 mg/ft^2 (1.065 g/m^2), and caging 2nd stage nymph cockroaches on these surfaces for 48 hours at 7 day intervals until less than 50% mortality was recorded.

With `CNC(=O)Oc1cccc2c1OC(C)(C)O2` [Compound 5, 2,2-dimethyl-1,3-benzodioxol-4-yl N-methylcarbamate] the “mortality of cattle tick larvae” value [1] was “all the ticks in the treated filter papers were dead”, the LC50 value [2] was 4 (10-29 mg/ft^2 (107-310 mg/m^2)) and the LC50 value [3] was 5 (0.15-0.5 mg/ft^2 (1.6-5.3 mg/m^2)). For the same compound, the “activity against cockroaches (in words)” value [3] was “outstandingly good activity against cockroaches”, the LC50 ([4]; sheep maggot fly larvae, 24 hours, 0-6 scale (ppm)) was 3 to 9 µg/mL (≈ 13.4 to 40.3 µM) and the LC50 ([5]; adult red spider mites, 48 hours, 0-6 scale (ppm)) was over 1000 µg/mL. The “kill of vetch aphids” value [6] was “complete kill of the aphids in 24 hours”, the LD50 at 120 h [7] was 45 mg/kg and the mortality of houseflies [8] was “all found to be dead”. The LD50 at 120 h [9] was 45 mg/kg, the “mortality of sheep blowfly larvae” value [10] was “all dead” and the “effectiveness against domestic and public health pests (in words)” value [11] was “effective against a wide range of such pests”. For the same compound, the “mortality of cabbage white butterfly larvae” value [12] was “all found to be dead”.
In the case of `CCC(=O)N(C)C(=O)Oc1cccc2c1OC(C)(C)O2` [Compound 2, 2,2-dimethyl-1,3-benzodioxol-4-yl N-propionyl-N-methylcarbamate], the LC50 value [2] is reported as 5 (3-9 mg/ft^2 (32-106 mg/m^2)), the “activity against houseflies (in words)” value ([2]; compared with compound 5) is reported as “as good or better activity against houseflies than does compound 5” and the LC50 value [3] is reported as 6 (<0.5 mg/ft^2 (<5.3 mg/m^2)). For the same compound, the “activity against cockroaches (in words)” value [3] was “outstandingly good activity against cockroaches”, the LC50 ([4]; 24 h) was 3 to 9 µg/mL (≈ 10.7 to 32.2 µM) and the “activity against sheep maggot fly (in words)” value ([4]; compared with compound 5) was “as active as compound 5 against sheep maggot fly”. For the same compound, the LC50 ([5]; 48 h) was 300 to 1000 µg/mL (≈ 1070 to 3580 µM), the “mammalian toxicity (in words)” value (rats and mice) was “lower mammalian toxicity than does compound 5” and the LC50 [13] was 3 to 9 µg/mL (≈ 10.7 to 32.2 µM). The LD50 at 120 h [7] was 280 mg/kg, the “solubility in organic solvents (in words)” value (Solubility) was “higher solubility in organic solvents than is compound 5” and the “persistency on sheep against sheep maggot fly (in words)” value [14] was “much better persistency on sheep”. The Persistency [15] was 21 to 28 days.
